The values below come from patent US12102631B2, “Quinolylnitrones for the treatment and prevention of a cerebral stroke or ischaemia” (ISQUAEMIA BIOTECH, S.L., priority 2018, dated 2024).

Holding throughout (type): biochemical
One assay deals with T1, soybean lipoxygenase LOX (Glycine max, UniProt P08170).
T1 sequence (P08170 1-839): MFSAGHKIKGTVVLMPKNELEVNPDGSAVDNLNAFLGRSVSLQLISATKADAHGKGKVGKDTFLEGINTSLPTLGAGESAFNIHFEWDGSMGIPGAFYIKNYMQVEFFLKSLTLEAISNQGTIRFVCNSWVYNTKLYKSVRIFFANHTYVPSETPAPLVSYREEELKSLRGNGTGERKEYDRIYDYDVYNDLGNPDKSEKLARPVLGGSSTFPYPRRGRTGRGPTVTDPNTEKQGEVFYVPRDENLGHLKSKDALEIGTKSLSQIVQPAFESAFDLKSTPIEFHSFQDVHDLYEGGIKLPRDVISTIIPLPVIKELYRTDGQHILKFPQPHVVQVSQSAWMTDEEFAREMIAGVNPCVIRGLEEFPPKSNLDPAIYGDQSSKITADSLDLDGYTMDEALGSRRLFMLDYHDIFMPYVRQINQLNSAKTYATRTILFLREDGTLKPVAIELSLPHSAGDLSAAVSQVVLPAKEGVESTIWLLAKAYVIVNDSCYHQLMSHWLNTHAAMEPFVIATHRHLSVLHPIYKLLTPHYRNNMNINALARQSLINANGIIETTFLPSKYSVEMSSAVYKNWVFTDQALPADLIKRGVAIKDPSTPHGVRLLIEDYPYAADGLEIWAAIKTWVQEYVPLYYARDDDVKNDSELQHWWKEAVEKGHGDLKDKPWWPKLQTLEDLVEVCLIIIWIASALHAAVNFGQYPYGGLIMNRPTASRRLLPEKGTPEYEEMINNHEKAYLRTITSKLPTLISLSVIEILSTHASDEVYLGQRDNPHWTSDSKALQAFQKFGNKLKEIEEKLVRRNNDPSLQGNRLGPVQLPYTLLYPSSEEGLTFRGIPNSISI
Description: Lipoxygenase (LOX) inhibition, UV-based enzyme assay. The note with it: for LOX (%): tested at 100 μM. The text has this: 3.5. Lipoxygenase inhibition of QNs. […] A key strategy to prevent potential damage to cellular compounds such as DNA, proteins and lipids is to reduce the free radical load. […] LOX index, a novel predictive biochemical marker for coronary heart disease and stroke. […] Thus, LOX inhibitors may provide multifactorial protection against ischemic injury. […] Most of the LOX inhibitors are often antioxidants or free radical scavengers.

Assay [1] in a line: Hydroxyl radical scavenging (competition with DMSO). The note with it: tested at 100 μM. As to the method:
Hydroxyl Radicals Scavenging Activity.^32 The hydroxyl radicals were produced by the Fe^3+/ascorbic acid system. EDTA (0.1 mM), Fe^3+ (167 μM), DMSO (33 mM) in phosphate buffer (50 mM, pH 7.4), the tested compounds (0.1 mM) and ascorbic acid (10 mM) were mixed in test tubes. The solutions were incubated at 37° C. for 30 min. The reaction was stopped by trichloroacetic acid (17% w/v) (Table 1) and the % scavenging activity of the tested compounds for hydroxyl radicals was given.
3.2. Competition of QNs with DMSO for hydroxyl radicals. Among the ROS, the hydroxyl (·OH) free radical is possibly the most toxic, as it easily reacts with biological important molecules such as DNA, lipids or carbohydrates. Polyunsaturated fatty acids are found in high concentrations in the CNS, and are particularly vulnerable to free radicals attack. Thus, we tried to test the ability of our compound to scavenge hydroxyl radicals. […] Antioxidants with lipophilic character are needed to act as radical scavengers or as chain-breaking antioxidants in biological membranes.

Assay [2] in a line: Quantitative nitrite assay for NO release (Griess). Particulars: 100 μM, L-cysteine, pH 7.4, 60 min 37° C. Here is the method:
Quantitative nitrite assays for NO release. A solution of nitrone 23 (final concentration 100 μM) (20 μL), dissolved in DMSO, was added to 2 mL of 50 mM phosphate buffer (pH=7.4) containing the appropriate amount of thiol cofactor 1 mM (L-cysteine). After 60 min at 37° C., 1 mL of the reaction mixture was treated with 250 μL of the Griess reagent (4 g sulfanilamide, 0.2 g N-naphthyl-ethyldiamine dihydrochloride, 10 mL of 85% phosphoric acid in distilled water, final volume 100 mL). After the mixture stood for 10 min at rt, absorbance was recorded at 540 nm. Sodium nitroprusside (SNP) was used as standard reference compound (100 μM). The yield in nitrite (NO2^− release) for nitrone 23, as function of L-cysteine (mM concentration) is given in Table 1, expressed as % NO2^− (mol/mol).
QNs were tested in vitro for their ability to release NO by the action of a thiol co-factor. NO release with simultaneous production of cyanide occurs by action of reducing agents like thiols. L-cysteine was used as a co-factor in this in vitro biological test. […] The screened compounds (final concentration 100 μM) was tested for its ability to release NO when dissolved in a phosphate buffer containing L-cysteine (pH 7.4). Air was oxidizing the initially formed NO, transforming it to nitrites, which were detected by the Griess reaction. Virtually, no formation of NO2^− was detectable in the absence of L-cysteine for the nitrones tested.
On the technique in general: Griess reagent forms a coloured azo dye with nitrite.

Assay [3] can be described thus: ABTS radical cation decolorization assay. The note with it: tested at 100 μM. Here is the method: ABTS^⋅+-decolorization assay in ethanolic solution for antioxidant activity.^32,35 ABTS is dissolved in water to a 2 mM concentration. ABTS radical cation (ABTS^⋅+) is produced by reacting the ABTS stock solution with 0.17 mM potassium persulfate in phosphate buffer (pH 7.4, 20 mM) and allowing the mixture to stand in the dark at room temperature for 12-16 h before use. For steady state measurements, […] ABTS^⋅+ was used. For the present study, the […] ABTS^⋅ solution (200 μL) was diluted with ethanol (790 μL) to an absorbance of 0.70 at 734 nm, equilibrated at room temperature, mixed with 10 μL of the tested compounds (stock solutions 10 mM) and the absorbance reading was taken at room temperature 1 min after the initial mixing. Trolox was used as a standard.
3.4. ABTS^⋅+ antioxidant activity of QNs. The ABTS^⋅+ radical cation, derived from the oxidation of 2,2′-azino-bis(3-ethylbenzothiazoline-6-sulphonic acid) (ABTS) by potassium persulfate, is a green-blue stable chromophore, which can be analyzed in the course of a decolorization assay. The addition of electron-donor antioxidants leads to ABTS^⋅+ reduction. The chemistry taking place involves the direct generation of the ABTS^⋅+ with no involvement of an intermediary radical. […] Again, and as shown, QN23 presented limited activity beside with 19, although the others nitrones had no activity (Table 3).

The structures appear in SMILES notation. pIC50: −log10 of the molar value.

The term pIC50 denotes the IC50 on a negative log10 scale, so that one unit is a factor of ten.

Take `CC(C)(C)/[N+]([O-])=C/c1ccc(S(=O)(=O)O)cc1S(=O)(=O)O` [Compound 2, sodium (Z)-4-((tert-butyloxidoazanylidene)methyl)benzene-1,3-disulfonate, reference compound]: the pIC50 at soybean lipoxygenase LOX is 4.24. In addition, the “*OH (%)” value in assay [1] turned out to be 94%. The “NO2− (%) (mol/mol)” value in assay [2] is 1 % (mol/mol). Further, the “ABTS*+ (%)” value in assay [3] was “no”.

With `CC(C)(C)/[N+]([O-])=C/c1cc2ccccc2nc1Cl` [Compound 18, (Z)—N-t-Butyl-1-(2-chloroquinolin-3-yl)methanimine oxide], the “*OH (%)” value in assay [1] stood at 97%. The “NO2− (%) (mol/mol)” value in assay [2] is 7.5 % (mol/mol). The “ABTS*+ (%)” value in assay [3] is “no”.

In the case of `CC(C)(C)/[N+]([O-])=C/c1cc2ccccc2[nH]c1=O` [Compound 19, (Z)—N-tert-Butyl-1-(2-oxo-1,2-dihydroquinolin-3-yl)methanimine oxide], the negative logarithm of the IC50 (pIC50) on soybean lipoxygenase LOX is 4.44. Further, in assay [1], the “*OH (%)” value was determined as 99%. For the same compound, in assay [3], the “ABTS*+ (%)” value is 6%.

Regarding `COc1ccc2nc(Cl)c(/C=[N+](/C)[O-])cc2c1` [Compound 22, (Z)-1-(2-Chloro-6-methoxyquinolin-3-yl)-N-methylmethanimine oxide], on soybean lipoxygenase LOX, the “LOX (%)” value was 26%. The “*OH (%)” value in assay [1] was found to be 100%. Moreover, the “NO2− (%) (mol/mol)” value in assay [2] is 11 % (mol/mol). Besides, the “ABTS*+ (%)” value in assay [3] is listed as “no”.

As to `COc1ccc2nc(Cl)c(/C=[N+](\[O-])C(C)(C)C)cc2c1` [Compound 23, (Z)—N-tert-Butyl-1-(2-chloro-6-methoxyquinolin-3-yl)methanimine oxide], the “LOX (%)” value on soybean lipoxygenase LOX was determined as 29%. In addition, the “*OH (%)” value in assay [1] was 100%. Moreover, the “NO2− (%) (mol/mol)” value in assay [2] was 3 % (mol/mol). In assay [3], the “ABTS*+ (%)” value came to 7%.

Compound `COc1ccc2nc(Cl)c(/C=[N+](\[O-])Cc3ccccc3)cc2c1` [Compound 24, (Z)—N-Benzyl-1-(2-chloro-6-methoxyquinolin-3-yl)methanimine oxide] showed a pIC50 against soybean lipoxygenase LOX of 4.00. For the same compound, in assay [1], the “*OH (%)” value came out at 65%. The “NO2− (%) (mol/mol)” value in assay [2] is listed as 12.5 % (mol/mol). In addition, the “ABTS*+ (%)” value in assay [3] is recorded as “no”.

As to `COc1ccc2nc(Cl)c(C=O)cc2c1` [Compound 32, 2-chloro-6-methoxyquinoline-3-carbaldehyde, reference compound], the pIC50 on soybean lipoxygenase LOX was 5.12. The “*OH (%)” value in assay [1] is recorded as 89%. Also, the “NO2− (%) (mol/mol)” value in assay [2] is given as 2.5 % (mol/mol). The “ABTS*+ (%)” value in assay [3] was 5%.
